Laboratory results reported in US8673880B2, “Prevention and/or treatment of neurodegenerative disorders” (The University Of Liverpool, priority 2006, dated 2014).

Experiments:
Format in all cases: biochemical
recombinant human BACE-1 = molecular target: T1, recombinant human BACE-1 (Homo sapiens, UniProt P56817); experiment: BACE-1 inhibition by in vitro FRET peptide cleavage assay; conditions: for IC50 (BACE-1): FRET peptide cleavage; for Therapeutic ratio (BACE/Xa): calculated from IC50 against BACE-1/anticoagulant activity; for EC50 (BACE inhibition): Example 2, Table 2
T1 construct: purchased Sigma
T1 sequence (P56817 46-501): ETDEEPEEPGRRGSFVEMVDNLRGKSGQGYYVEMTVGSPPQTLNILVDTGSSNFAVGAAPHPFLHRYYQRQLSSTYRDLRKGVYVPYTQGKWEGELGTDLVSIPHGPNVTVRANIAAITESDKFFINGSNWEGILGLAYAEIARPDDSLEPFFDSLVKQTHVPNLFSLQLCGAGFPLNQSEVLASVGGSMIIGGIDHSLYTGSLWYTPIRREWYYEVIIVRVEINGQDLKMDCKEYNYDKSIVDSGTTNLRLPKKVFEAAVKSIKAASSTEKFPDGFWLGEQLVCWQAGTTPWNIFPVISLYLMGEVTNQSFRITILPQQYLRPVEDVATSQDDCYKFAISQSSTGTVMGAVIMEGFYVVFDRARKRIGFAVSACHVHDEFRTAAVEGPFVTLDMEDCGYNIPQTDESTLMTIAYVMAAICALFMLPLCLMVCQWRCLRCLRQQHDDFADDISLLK
Experimental: In vitro cleavage of APP by BACE-1 was measured using a FRET peptide cleavage assay.
The ability of the compounds to inhibit BACE-1 cleavage of APP was assessed using a fluorescent resonance energy transfer (FRET) peptide cleavage assay employing the FRET peptide 5-FAM-Glu-Val-Asn-Leu-Asp-Ala-Phe-Lys(QXL520)-OH, containing the Swedish amino acid variant (Anaspec, Inc., CA, USA). When intact, the amino terminal fluorophore is quenched, but upon enzymatic cleavage the fluorophore is released from quencher and fluoresces (520 nm). Assays were performed in triplicate in 96 well black plates (20 mM sodium acetate, 0.1% Triton-X-100, pH 4.5; 2.5 μM peptide per well and 4.0×10^−3 units/well of recombinant human BACE-1 (Sigma)). The appropriate controls for enzyme activity and background fluorescence were employed and plates were incubated (1 h, 25° C., stopped with 2.5 M sodium acetate) Inhibitors were added in a concentration range from 1000-0.0001 μg/ml. Fluorescence 480ex/520em was measured on a Polarstar plate reader (BMG LabTechnologies, UK) and data were analysed by plotting log10 concentration of inhibitor against percent inhibition and fitting a four parameter sigmoidal curve using BioDataFit 1.02 (Chang Bioscience, USA).

Factor Xa = experiment: Anti Factor Xa (anticoagulant) activity, Coatest Heparin test kit; conditions: for Anti-coagulant activity: anti-factor Xa, percentage of PIMH (defined as 100%); for Anticoagulant activity (%): Example 2, Table 2, standard heparin = 100
Experimental: Anti Factor Xa activity was measured against a porcine mucosal heparin (PIMH) standard of known activity (Sigma, UK) using a diagnostic grade Coatest Heparin test kit (Chromogenix, MA, USA), adapted to a 96 well plate format, reading A405 (Polarstar plate reader (BMG LabTechnologies, UK)).

pepsin = molecular target: T2, pepsin (Sus scrofa, UniProt P00791); experiment: Pepsin FRET cleavage assay
T2 construct: purchased Sigma, UK
T2 sequence (P00791 60-385): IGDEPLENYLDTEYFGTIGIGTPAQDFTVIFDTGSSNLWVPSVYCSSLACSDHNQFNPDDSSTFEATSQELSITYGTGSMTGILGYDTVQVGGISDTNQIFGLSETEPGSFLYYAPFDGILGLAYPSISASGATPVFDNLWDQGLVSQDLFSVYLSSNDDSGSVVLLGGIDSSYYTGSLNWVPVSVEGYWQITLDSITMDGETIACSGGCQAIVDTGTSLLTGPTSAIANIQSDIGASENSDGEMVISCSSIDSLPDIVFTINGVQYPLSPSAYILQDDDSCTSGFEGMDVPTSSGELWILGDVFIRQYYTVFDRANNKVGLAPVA
Experimental: (§1) The ability of compounds to inhibit the structurally related proteases pepsin and cathepsin D (Sigma, UK) was measured by FRET cleavage assay (5 pmol enzyme/well, EnzChek Protease Assay kit (Molecular Probes, UK) according to manufacturer's instructions). Activity against human recombinant renin (Cayman Chemical, MI, USA), was measured by FRET peptide cleavage assay (0.08 pMoles enzyme/well, using the Renin Substrate 1 (Molecular Probes, Invitrogen, UK) according to manufacturer's instructions. IC50 values were calculated as described above.

[1] = molecular target: T3, Aβ peptide (Amyloid β Protein Fragment 1-42) (Homo sapiens, UniProt P05067); experiment: Aβ aggregation assay (Thioflavin T); conditions: for rate of A-β aggregation, % slower: compared to intact heparin; for increase in the time taken to reach half-maximal peptide aggregation: concentration of 100 μg/ml, compared to parental PMH
T3 construct: Amyloid β Protein Fragment 1-42; Sigma A9810; purchased Sigma A9810
T3 sequence (P05067 672-713): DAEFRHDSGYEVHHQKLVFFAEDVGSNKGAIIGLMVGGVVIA
Experimental: The Aβ peptide was prepared by addition of 1 ml of hexafluoro-2-propanol to 1 mg Aβ peptide (Amyloid β Protein Fragment 1-42; Sigma A9810) and disaggregation at room temperature for 1 hour. The resulting material was divided into 50 μl (50 μg) aliquots and dried in Speed Vac for approximately 2 hours, followed by storage at −20° C. The Thioflavin T (Sigma T-3516) solution was prepared as a 5 mM solution in 50 mM Glycine-NaOH pH 8.5, and stored in the dark at 4° C. Thioflavin T assay buffer comprising 20 μl Thioflavin T solution with 50 μl 1M DTT and […] assay Buffer (10 mM HEPES/100 mM NaCl pH 7.4) was kept on ice. 50 μl of 20 mM NaOH was added to 50 μg of Aβ peptide. 2.5 ml of Thioflavin T assay buffer was then added to this Aβ peptide solution, making “Aβ buffer”. The remaining 2.5 ml of Thioflavin T assay buffer was the blank buffer, and both were kept on ice. Six replicates of sample dilutions (1:1 in assay buffer) were pipetted into a 96 well black plate (Greiner 655076; 100 μl/well) and the plate was kept on ice. 100 μl/well of Aβ buffer was added to the samples (in triplicate), and 100 μl/well of the blank buffer added to a further three sample replicates. The 96 well plate was read (450 nm excitation wavelength and 490 nm emission wavelength), taking a reading every 150 seconds for 250 cycles one plate reader set at 37° C.

human recombinant renin = molecular target: T4, human recombinant renin (Homo sapiens, UniProt P00797); experiment: Renin FRET peptide cleavage assay; conditions: concentrations up to 1000 μg/ml
T4 construct: purchased Cayman Chemical
T4 sequence (P00797 67-406): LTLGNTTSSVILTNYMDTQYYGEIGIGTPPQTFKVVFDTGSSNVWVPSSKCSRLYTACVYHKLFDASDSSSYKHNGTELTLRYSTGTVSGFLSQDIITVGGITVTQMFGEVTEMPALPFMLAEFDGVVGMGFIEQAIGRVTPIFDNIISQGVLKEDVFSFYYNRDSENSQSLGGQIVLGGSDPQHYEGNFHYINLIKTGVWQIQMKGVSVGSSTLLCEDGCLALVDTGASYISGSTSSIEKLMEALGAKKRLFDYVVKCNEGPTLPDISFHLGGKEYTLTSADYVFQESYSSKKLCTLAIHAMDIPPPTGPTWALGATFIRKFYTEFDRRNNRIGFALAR
Experimental: as §1

cathepsin D = molecular target: T5, cathepsin D (Homo sapiens, UniProt P07339); experiment: Cathepsin D FRET cleavage assay
T5 construct: purchased Sigma, UK
T5 sequence (P07339 65-412, species assumed): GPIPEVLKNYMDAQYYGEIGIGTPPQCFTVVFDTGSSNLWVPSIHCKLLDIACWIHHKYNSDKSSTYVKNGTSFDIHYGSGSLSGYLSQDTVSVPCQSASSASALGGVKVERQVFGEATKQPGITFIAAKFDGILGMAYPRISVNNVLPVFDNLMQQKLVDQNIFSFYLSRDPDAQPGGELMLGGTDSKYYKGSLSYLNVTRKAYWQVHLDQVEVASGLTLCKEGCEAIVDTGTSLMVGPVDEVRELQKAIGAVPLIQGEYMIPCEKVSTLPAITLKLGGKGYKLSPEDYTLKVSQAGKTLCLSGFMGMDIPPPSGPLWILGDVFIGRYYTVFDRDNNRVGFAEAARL
Experimental: as §1

Row | Compound | IC50 (BACE-1) (recombinant human BACE-1; Table 1) | Therapeutic ratio (BACE/Xa) (recombinant human BACE-1) | Anti-coagulant activity (Factor Xa) [%] | IC50 against pepsin (pepsin) [µg/mL] | increase in the time taken to reach half-maximal peptide aggregation [1] [%] | inhibitory effect on renin (human recombinant renin) | IC50 against cathepsin D (cathepsin D) [µg/mL] | further results
1 | 6-O-desulphated, N-acetylated heparin [Compound 6] | 0.410 μg/ml | 237 | 0.03 | – | – | – | – | –
2 | N-acetyl heparin [Compound 2] | 0.031 μg/ml | 3136 | 0.03 | 3.27 | 50 | None of the compounds exerted an inhibitory effect on renin | 0.27 | fold less potent than PIMH against pepsin (pepsin; compared with compound 1): 14 fold; rate of A-β aggregation, % slower ([1]; FIG. 2): 50%
3 | 6-O-desulphated heparin [Compound 5] | 0.100 μg/ml | 61 | 0.5 | – | – | – | – | –
4 | Ido 2-de-O-sulphated, N-acetylated heparin [Compound 4] | 0.091 μg/ml | 1092 | 0.03 | > 1000 | 100 | None of the compounds exerted an inhibitory effect on renin | – | rate of A-β aggregation, % slower ([1]; FIG. 2): 100%; EC50 fold lower than unmodified PMH (recombinant human BACE-1; Example 2): approximately 3 fold; EC50 (BACE inhibition) (recombinant human BACE-1): 0.089 µg/mL; anti factor Xa activity, fold lower than PIMH (Factor Xa; Example 1): at least 3000 fold; Anticoagulant activity (%) (Factor Xa): <0.03%
5 | 6-O-desulphated, 2-O-desulphated heparin [Compound 7] | 0.786 μg/ml | 123 | 0.03 | – | – | – | – | –
6 | NCCCS(=O)(=O)O [Compound 10, 3-amino-1-propanesulfonic acid, reference compound] | No | – | – | – | – | – | – | inhibition of BACE-1 (recombinant human BACE-1; even at high concentrations (1000 μg/ml)): did not inhibit BACE-1
7 | 6-O-desulphated, 2-O-desulphated, N-acetylated heparin [Compound 8] | >100 μg/ml | 1 | 0.03 | – | – | – | – | BACE-1 inhibitory activity in words (recombinant human BACE-1; Table 1): almost abolished
8 | Per-sulphated heparin [Compound 9] | 0.053 μg/ml | 2 | 35.0 | – | – | – | – | –
9 | porcine intestinal mucosal heparin [Compound 1, reference compound] | 0.028 μg/ml | 1 | 100 | 0.23 | – | None of the compounds exerted an inhibitory effect on renin | 0.1 | enhancement of Aβ aggregation ([1]; FIG. 2): maximum enhancement; EC50 (BACE inhibition) (recombinant human BACE-1): 0.027 µg/mL; Anticoagulant activity (%) (Factor Xa): 100%
10 | Ido 2-de-O-sulphated heparin [Compound 3] | 0.053 μg/ml | 147 | 0.4 | – | 50 | None of the compounds exerted an inhibitory effect on renin | 0.77 | –
